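96-well plates; 48 h exposure; 5 concentrations. Endpoints by linear interpolation between flanking doses. Not reached: highest tested concentration assigned. Abbreviation: GI50, concentration required for 50% inhibition of growth.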 Activity calls are given as the source filed them. Rule as the data show it: active = GI50 up to about 1.1 µM and inactive = higher.

Among the test systems are A498; ACHN; CAKI-1; HCT-116; HCT-15; HOP-92; K562; KM12; MCF7; NCI-H23; SF-295; SK-MEL-2; SK-MEL-5; SN12C; SNB-19; T47D; U-251.
What all share (assay): NCI tumour cell line growth inhibition, 48 h

For `CC(C)CC1c2[nH]c3ccccc3c2C[C@H]2C(=O)NC(CCC(=O)OC(C)(C)C)C(=O)N12` (some centres not stated), the GI50 is 40.4 µM (inactive) in the test on A498; 30.8 µM (inactive) in the test with ACHN; 42.4 µM (inactive) in the test on CAKI-1; 28.8 µM (inactive) in the test on HCT-116; 33.8 µM in the test with HCT-15; 27.5 µM (inactive) in the test on HOP-92. Moreover, the GI50 is 36.9 µM (inactive) with K562; 40.6 µM (inactive) in the test on KM12; 36.9 µM (inactive) in the test on MCF7; 34.6 µM (inactive) in the test on NCI-H23; 19.4 µM (inactive) with SF-295; 18.4 µM (inactive) in the test on SK-MEL-2. The GI50 was 25.9 µM (inactive) in the test with SK-MEL-5; 22.8 µM (inactive) in the test with SN12C; 37.3 µM (inactive) in the test on SNB-19; 15.8 µM (inactive) with T47D; 29 µM (inactive) in the test with U-251.
For `CCN(CC)CCN1c2ccccc2Sc2ccc3ccccc3c21`, the GI50 in the test with A498 was 11.4 µM (inactive); in the test with ACHN it was 13.7 µM (inactive); in the test with CAKI-1 it was 8.89 µM (inactive); in the test with HCT-116 it was 10.8 µM (inactive); with HCT-15 it was 6.9 µM; in the test on HOP-92, 3.37 µM (inactive). Moreover, the GI50 in the test on K562 was 4.66 µM (inactive); in the test with KM12 it was 7 µM (inactive); in the test on MCF7, 9.27 µM (inactive); with NCI-H23, 15.5 µM (inactive); in the test with SF-295, 13.2 µM (inactive); in the test with SK-MEL-2, 14.3 µM (inactive). Moreover, the GI50 was 4.72 µM (inactive) in the test on SK-MEL-5; 11.7 µM (inactive) in the test on SN12C; 15.3 µM (inactive) in the test with SNB-19; 2.01 µM (inactive) in the test on T47D; 9.38 µM (inactive) with U-251.
`O=C(NCCCCCCCN1CCCCCCC1)C(C1CCCCC1)C1CCCCC1`: the GI50 is 5.83 µM (inactive) in the test on A498; 12 µM (inactive) in the test on ACHN; 7.14 µM (inactive) with CAKI-1; 7.66 µM (inactive) with HCT-116; 4.07 µM with HCT-15; 9.06 µM (inactive) in the test on HOP-92. For the same molecule, the GI50 in the test with K562 is 2.77 µM (inactive); in the test with KM12 it was 6.75 µM (inactive); with MCF7 it was 7.16 µM (inactive); with NCI-H23, 12.9 µM (inactive); in the test with SF-295, 11.4 µM (inactive); with SK-MEL-2, 9.08 µM (inactive). Further, the GI50 in the test with SK-MEL-5 is 2.42 µM (inactive); with SN12C, 13.1 µM (inactive); in the test with SNB-19 it was 14.3 µM (inactive); with T47D, 6.05 µM (inactive); in the test on U-251 it was 8.51 µM (inactive).
On to `CC(C)(C)C1=CC(=C(c2ccc(-c3c4nc(c(-c5ccc(C(=C6C=C(C(C)(C)C)C(=O)C(C(C)(C)C)=C6)c6cc(C(C)(C)C)c(O)c(C(C)(C)C)c6)cc5)c5ccc([nH]5)c(-c5ccc(C(=C6C=C(C(C)(C)C)C(=O)C(C(C)(C)C)=C6)c6cc(C(C)(C)C)c(O)c(C(C)(C)C)c6)cc5)c5nc(c(-c6ccc(C(=C7C=C(C(C)(C)C)C(=O)C(C(C)(C)C)=C7)c7cc(C(C)(C)C)c(O)c(C(C)(C)C)c7)cc6)c6ccc3[nH]6)C=C5)C=C4)cc2)c2cc(C(C)(C)C)c(O)c(C(C)(C)C)c2)C=C(C(C)(C)C)C1=O`, for which the GI50 with A498 is > 100 µM (inactive); in the test with ACHN, > 100 µM (inactive); in the test on CAKI-1, > 100 µM (inactive); in the test on HCT-116 it was > 100 µM (inactive); with HCT-15, > 100 µM; in the test with HOP-92 it was > 100 µM (inactive). Besides, the GI50 in the test on K562, in the test with KM12, with MCF7, in the test with NCI-H23, in the test with SF-295 and in the test with SK-MEL-2 was > 100 µM (inactive) in each case. In addition, the GI50 in the test with SK-MEL-5, in the test on SN12C, with SNB-19, in the test on T47D and in the test with U-251 was > 100 µM (inactive) each time.
On to `COC1(OC)C=CC2C1C1C=CC2C1(OC)OC` (configuration not stated), for which the GI50 in the test with A498 was > 100 µM (inactive); in the test on ACHN, > 100 µM (inactive); in the test with CAKI-1, > 100 µM (inactive); in the test on HCT-116, > 100 µM (inactive); in the test with HCT-15, > 100 µM; in the test with HOP-92 it was > 100 µM (inactive). In addition, the GI50 in the test with K562, in the test with KM12, in the test with MCF7, with NCI-H23, in the test on SF-295 and in the test on SK-MEL-2 was > 100 µM (inactive) each time. Further, the GI50 with SK-MEL-5, in the test with SN12C, in the test on SNB-19, in the test on T47D and in the test with U-251 was > 100 µM (inactive) throughout.
For `Nc1ccc(Oc2ccc(C34CC5CC(C3)CC(c3ccc(Oc6ccc(N)cc6)cc3)(C5)C4)cc2)cc1`, the GI50 with A498 is 12 µM (inactive); in the test on ACHN, 19.5 µM (inactive); in the test on CAKI-1, 13.5 µM (inactive); with HCT-116 it was 7.55 µM (inactive); with HCT-15, 10.8 µM; in the test with HOP-92 it was 6.05 µM (inactive). Besides, the GI50 was 15.8 µM (inactive) in the test with K562; 7.67 µM (inactive) with KM12; 4.81 µM (inactive) in the test with MCF7; 7.8 µM (inactive) with NCI-H23; 10.3 µM (inactive) in the test on SF-295; 13.1 µM (inactive) in the test on SK-MEL-2. In addition, the GI50 is 12.6 µM (inactive) with SK-MEL-5; 12.5 µM (inactive) in the test on SN12C; 12 µM (inactive) in the test on SNB-19; 6.84 µM (inactive) in the test with T47D; 5.43 µM (inactive) with U-251.
With `O=C1C[C@H](CCC(=O)OCc2ccccc2)NC(=O)C[C@H](CCC(=O)OCc2ccccc2)NC(=O)C[C@H](CCC(=O)OCc2ccccc2)N1`, the GI50 with A498 was 7.57 µM (inactive); in the test on ACHN, 17.1 µM (inactive); with CAKI-1 it was > 100 µM (inactive); with HCT-116 it was 26.2 µM (inactive); in the test with HCT-15 it was > 100 µM; in the test on HOP-92, 3.92 µM (inactive). The GI50 was > 100 µM (inactive) in the test on K562; > 100 µM (inactive) with KM12; > 100 µM (inactive) with MCF7; 52.8 µM (inactive) in the test on NCI-H23; 8.81 µM (inactive) in the test on SF-295; 17.1 µM (inactive) in the test on SK-MEL-2. Also, the GI50 was > 100 µM (inactive) with SK-MEL-5; > 100 µM (inactive) in the test with SN12C; 9.98 µM (inactive) in the test on SNB-19; 44.3 µM (inactive) in the test on T47D; 5.24 µM (inactive) in the test on U-251.
For the molecule `NC(=O)NNCc1c(-c2ccccc2)no[n+]1[O-]`, the GI50 in the test on A498 is > 100 µM (inactive); with ACHN it was > 100 µM (inactive); in the test with CAKI-1 it was > 100 µM (inactive); with HCT-116, > 100 µM (inactive); with HCT-15, > 100 µM; in the test on HOP-92, > 100 µM (inactive). Further, the GI50 in the test on K562, with KM12, in the test on MCF7, in the test with NCI-H23, in the test on SF-295 and with SK-MEL-2 was > 100 µM (inactive) throughout. Further, the GI50 in the test with SK-MEL-5, in the test with SN12C, with SNB-19, with T47D and with U-251 was > 100 µM (inactive) throughout.
For the molecule `C=CCNC1=C2C[C@@H](C)C[C@@H](OC)[C@H](OC(=O)CCN)[C@H](C)/C=C(\C)[C@@H](OC(N)=O)[C@H](OC)/C=C\C=C(/C)C(=O)NC(=CC1=O)C2=O`, the GI50 is 3.61 µM (inactive) in the test with A498; 12.6 µM (inactive) with ACHN; 12.2 µM (inactive) with CAKI-1; 3.53 µM (inactive) with HCT-116; 9.57 µM with HCT-15; 4.49 µM (inactive) with HOP-92. Moreover, the GI50 in the test on K562 is 3.99 µM (inactive); with KM12, 1.79 µM (inactive); with MCF7, 0.703 µM (active); with NCI-H23, 3.01 µM (inactive); with SF-295, 3.75 µM (inactive); in the test on SK-MEL-2 it was 1.9 µM (inactive). Also, the GI50 with SK-MEL-5 is 4.12 µM (inactive); with SN12C it was 2.34 µM (inactive); with SNB-19, 6.27 µM (inactive); in the test on T47D, 4.89 µM (inactive); in the test with U-251, 5.09 µM (inactive).
Regarding `CC1N=C(c2ccccc2)OC1=O` (configuration not stated), the GI50 is > 100 µM (inactive) in the test on A498; > 100 µM (inactive) in the test on ACHN; > 100 µM (inactive) in the test on CAKI-1; > 100 µM (inactive) in the test on HCT-116; > 100 µM in the test with HCT-15; > 100 µM (inactive) in the test on HOP-92. Moreover, the GI50 in the test on K562, in the test on KM12, in the test on MCF7, with NCI-H23, with SF-295 and in the test with SK-MEL-2 was > 100 µM (inactive) each time. In addition, the GI50 in the test with SK-MEL-5, in the test on SN12C, with SNB-19, with T47D and with U-251 was > 100 µM (inactive) throughout.
As to `CCCC(=O)Nc1cc(/C=C/C(=O)N2C[C@H]3C[C@@]34C2=CC(=O)c2[nH]cc(C)c24)n(C)c1`, the GI50 in the test with A498 was < 0.0025 µM (active); in the test with ACHN, < 0.0025 µM (active); in the test on CAKI-1, < 0.0025 µM (active); with HCT-116, < 0.0025 µM (active); in the test on HCT-15, 0.0103 µM; in the test on HOP-92, < 0.0025 µM (active). The GI50 in the test with K562, in the test with KM12, with MCF7, with NCI-H23, in the test on SF-295 and in the test with SK-MEL-2 was < 0.0025 µM (active) throughout. Also, the GI50 was < 0.0025 µM (active) with SK-MEL-5; < 0.0025 µM (active) with SN12C; 0.00593 µM (active) in the test with SNB-19; < 0.0025 µM (active) in the test with T47D; < 0.0025 µM (active) in the test with U-251.

These data come from ChEMBL document CHEMBL1201862, “PubChem BioAssay data set” (2004).
